The nature of data set [1]: hygroscopicity as stated in the description of the solid form. The format is physicochemical. As to conditions: crystalline anhydrous form.
A short description of data set [2]: isothermal vapor sorption analysis. The format is physicochemical. As to conditions: up to 90% relative humidity, ambient temperature. The method, then: Form 1 was analyzed via isothermal vapor sorption analysis, which is a gravimetric technique that measures how quickly and how much of a solvent is absorbed by a sample: such as a dry powder absorbing water. It does this by varying the vapor concentration surrounding the sample and measuring the change in mass which this produces.

With `O=C(O)c1ccc2nc(-c3cc(Cl)cc(Cl)c3)oc2c1` [Form 1, 6-carboxy-2-(3,5-dichlorophenyl)-benzoxazole], the “hygroscopicity of the solid form” value in data set [1] is “non-hygroscopic”. The reversible weight gain entry in data set [2] was “less than 0.25%”.
